Reference: ChEMBL document CHEMBL3991601, “The target landscape of clinical kinase drugs” (Science, 2017)
The source made the active and inactive calls.

What was measured:
[1] = target: T1, Bone morphogenetic protein receptor type-2 (Homo sapiens, UniProt Q13873)
T1 sequence (Q13873 whole entry): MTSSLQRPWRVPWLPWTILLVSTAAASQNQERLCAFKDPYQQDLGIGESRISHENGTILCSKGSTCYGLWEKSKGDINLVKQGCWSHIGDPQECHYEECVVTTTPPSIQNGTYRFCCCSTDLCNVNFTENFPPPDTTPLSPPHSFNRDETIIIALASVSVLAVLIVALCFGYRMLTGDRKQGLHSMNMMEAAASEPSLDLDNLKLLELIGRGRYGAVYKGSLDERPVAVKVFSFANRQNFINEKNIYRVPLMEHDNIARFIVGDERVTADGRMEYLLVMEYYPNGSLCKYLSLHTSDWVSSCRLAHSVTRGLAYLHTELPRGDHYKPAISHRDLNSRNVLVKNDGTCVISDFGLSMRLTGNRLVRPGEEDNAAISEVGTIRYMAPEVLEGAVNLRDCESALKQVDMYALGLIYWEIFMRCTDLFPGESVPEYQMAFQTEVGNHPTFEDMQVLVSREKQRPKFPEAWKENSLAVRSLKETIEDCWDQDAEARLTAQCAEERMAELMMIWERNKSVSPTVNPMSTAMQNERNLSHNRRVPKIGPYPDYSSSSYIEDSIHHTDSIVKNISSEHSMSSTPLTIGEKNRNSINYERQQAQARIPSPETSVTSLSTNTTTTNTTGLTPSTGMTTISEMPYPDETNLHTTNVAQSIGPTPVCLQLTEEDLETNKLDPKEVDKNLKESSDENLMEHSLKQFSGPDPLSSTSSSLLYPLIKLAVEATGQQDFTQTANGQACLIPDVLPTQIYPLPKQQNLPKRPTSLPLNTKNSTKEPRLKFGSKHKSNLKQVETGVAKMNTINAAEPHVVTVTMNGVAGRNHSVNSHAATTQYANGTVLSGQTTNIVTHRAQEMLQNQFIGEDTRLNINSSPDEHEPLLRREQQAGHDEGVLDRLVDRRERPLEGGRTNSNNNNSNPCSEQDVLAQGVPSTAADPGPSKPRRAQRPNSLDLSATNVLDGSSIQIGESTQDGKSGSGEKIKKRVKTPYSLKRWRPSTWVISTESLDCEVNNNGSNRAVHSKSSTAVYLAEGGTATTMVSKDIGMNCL

[2] = target: U5 small nuclear ribonucleoprotein 200 kDa helicase (Homo sapiens, UniProt O75643)
Sequence of U5 small nuclear ribonucleoprotein 200 kDa helicase (O75643 whole entry): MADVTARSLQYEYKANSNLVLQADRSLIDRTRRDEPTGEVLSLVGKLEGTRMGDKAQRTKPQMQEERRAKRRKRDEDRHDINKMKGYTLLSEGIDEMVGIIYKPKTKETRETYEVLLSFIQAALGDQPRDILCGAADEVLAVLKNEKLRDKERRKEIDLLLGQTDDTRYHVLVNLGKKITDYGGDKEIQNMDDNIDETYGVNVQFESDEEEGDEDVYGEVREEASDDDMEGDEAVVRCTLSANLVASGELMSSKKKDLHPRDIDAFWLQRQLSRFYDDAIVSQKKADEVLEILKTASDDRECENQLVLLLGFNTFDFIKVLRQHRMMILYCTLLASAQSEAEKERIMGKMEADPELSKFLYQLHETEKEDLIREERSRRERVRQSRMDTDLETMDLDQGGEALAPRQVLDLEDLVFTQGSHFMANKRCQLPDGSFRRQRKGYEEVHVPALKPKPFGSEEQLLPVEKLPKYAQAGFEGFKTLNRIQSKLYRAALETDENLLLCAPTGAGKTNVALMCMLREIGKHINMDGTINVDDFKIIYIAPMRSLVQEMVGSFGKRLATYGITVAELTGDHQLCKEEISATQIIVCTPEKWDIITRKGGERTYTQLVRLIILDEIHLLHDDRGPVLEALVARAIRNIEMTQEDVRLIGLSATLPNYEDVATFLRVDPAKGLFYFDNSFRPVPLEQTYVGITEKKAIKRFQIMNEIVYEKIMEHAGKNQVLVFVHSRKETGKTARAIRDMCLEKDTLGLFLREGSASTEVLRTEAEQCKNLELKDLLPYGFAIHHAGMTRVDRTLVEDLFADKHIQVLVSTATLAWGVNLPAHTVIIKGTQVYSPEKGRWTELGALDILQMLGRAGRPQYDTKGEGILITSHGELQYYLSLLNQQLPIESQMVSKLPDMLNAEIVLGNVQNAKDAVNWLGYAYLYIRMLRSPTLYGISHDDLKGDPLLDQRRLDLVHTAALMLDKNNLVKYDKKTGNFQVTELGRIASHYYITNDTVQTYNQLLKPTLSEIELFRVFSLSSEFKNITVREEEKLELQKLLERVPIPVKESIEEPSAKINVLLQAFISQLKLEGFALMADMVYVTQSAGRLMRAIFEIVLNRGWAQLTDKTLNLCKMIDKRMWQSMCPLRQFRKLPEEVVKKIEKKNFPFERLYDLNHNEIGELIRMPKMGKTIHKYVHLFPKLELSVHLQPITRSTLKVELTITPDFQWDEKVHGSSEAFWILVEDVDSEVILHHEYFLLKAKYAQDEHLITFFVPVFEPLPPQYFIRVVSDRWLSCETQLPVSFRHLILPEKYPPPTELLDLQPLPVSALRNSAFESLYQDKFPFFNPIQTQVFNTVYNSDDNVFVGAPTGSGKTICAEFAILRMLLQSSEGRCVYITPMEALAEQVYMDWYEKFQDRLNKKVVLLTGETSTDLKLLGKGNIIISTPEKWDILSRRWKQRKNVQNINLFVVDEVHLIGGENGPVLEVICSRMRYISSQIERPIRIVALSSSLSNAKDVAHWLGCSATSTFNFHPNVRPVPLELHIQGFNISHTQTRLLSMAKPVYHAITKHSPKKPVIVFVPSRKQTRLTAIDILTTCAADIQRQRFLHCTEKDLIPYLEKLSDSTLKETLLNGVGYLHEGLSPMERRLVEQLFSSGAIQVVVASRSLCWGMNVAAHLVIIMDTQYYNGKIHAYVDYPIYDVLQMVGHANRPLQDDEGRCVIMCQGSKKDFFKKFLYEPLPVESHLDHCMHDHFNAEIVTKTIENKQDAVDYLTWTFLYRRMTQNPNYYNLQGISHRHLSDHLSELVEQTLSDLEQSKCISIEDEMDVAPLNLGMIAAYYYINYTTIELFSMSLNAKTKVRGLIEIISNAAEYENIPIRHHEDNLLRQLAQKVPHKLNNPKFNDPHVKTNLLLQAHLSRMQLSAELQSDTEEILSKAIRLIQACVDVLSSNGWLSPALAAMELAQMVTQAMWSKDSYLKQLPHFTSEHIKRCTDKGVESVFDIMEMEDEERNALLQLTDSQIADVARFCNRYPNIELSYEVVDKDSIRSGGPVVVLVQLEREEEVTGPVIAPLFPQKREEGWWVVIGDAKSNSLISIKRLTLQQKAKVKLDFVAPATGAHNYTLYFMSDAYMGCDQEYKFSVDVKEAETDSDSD

[3] = target: Mitogen-activated protein kinase 7 (Homo sapiens, UniProt Q13164)
Sequence of Mitogen-activated protein kinase 7 (Q13164 whole entry): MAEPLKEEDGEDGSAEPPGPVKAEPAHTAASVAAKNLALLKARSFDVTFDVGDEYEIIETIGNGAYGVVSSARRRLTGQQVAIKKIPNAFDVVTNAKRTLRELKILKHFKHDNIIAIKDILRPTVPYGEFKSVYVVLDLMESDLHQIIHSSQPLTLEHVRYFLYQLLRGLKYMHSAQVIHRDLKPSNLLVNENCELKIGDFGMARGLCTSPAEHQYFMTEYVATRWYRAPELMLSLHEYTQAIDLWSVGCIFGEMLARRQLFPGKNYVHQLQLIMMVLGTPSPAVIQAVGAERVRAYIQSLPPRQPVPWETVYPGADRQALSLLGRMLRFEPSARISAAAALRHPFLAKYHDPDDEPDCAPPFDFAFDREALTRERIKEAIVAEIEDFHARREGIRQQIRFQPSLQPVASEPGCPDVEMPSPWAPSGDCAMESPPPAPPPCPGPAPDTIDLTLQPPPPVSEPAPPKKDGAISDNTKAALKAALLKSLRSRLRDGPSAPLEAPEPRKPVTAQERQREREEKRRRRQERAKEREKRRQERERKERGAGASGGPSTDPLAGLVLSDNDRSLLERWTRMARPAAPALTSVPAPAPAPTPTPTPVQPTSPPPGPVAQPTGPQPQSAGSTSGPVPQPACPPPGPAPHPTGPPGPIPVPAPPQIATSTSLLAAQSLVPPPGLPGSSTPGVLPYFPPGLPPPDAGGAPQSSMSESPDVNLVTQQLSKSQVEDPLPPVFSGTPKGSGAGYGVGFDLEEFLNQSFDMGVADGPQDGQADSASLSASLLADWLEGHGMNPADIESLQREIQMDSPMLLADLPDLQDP

[4] = target: Midasin (Homo sapiens, UniProt Q9NU22)
[5] = target: Casein kinase I isoform epsilon (Homo sapiens, UniProt P49674)
Sequence of Casein kinase I isoform epsilon (P49674 whole entry, canonical isoform): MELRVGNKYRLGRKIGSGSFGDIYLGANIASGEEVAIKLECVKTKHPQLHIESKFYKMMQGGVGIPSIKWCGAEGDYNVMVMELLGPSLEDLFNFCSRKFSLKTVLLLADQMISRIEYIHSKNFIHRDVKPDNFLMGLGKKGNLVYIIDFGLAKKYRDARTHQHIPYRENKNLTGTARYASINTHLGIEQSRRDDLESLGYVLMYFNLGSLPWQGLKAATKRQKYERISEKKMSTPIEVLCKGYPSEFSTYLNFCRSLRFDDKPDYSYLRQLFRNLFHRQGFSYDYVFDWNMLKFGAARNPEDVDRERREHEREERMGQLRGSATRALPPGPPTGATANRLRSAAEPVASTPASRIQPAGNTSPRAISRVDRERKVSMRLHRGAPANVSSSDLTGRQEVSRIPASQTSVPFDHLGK

[6] = target: T2, MAP kinase-activated protein kinase 5 (Homo sapiens, UniProt Q8IW41)
T2 sequence (Q8IW41 whole entry): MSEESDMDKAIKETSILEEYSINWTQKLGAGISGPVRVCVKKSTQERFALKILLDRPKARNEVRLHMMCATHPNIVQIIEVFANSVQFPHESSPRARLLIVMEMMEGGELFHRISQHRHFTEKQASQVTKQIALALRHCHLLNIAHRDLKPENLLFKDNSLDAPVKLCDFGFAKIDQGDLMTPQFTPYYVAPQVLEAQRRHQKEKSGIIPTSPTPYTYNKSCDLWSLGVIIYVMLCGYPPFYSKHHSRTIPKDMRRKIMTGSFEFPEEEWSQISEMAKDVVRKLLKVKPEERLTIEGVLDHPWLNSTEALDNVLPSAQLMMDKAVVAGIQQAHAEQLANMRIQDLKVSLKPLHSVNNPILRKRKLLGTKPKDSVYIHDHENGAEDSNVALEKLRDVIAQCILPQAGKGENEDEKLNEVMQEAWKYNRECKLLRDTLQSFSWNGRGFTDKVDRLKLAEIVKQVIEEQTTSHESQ

[7] = target: T3, Beta-adrenergic receptor kinase 1 (Homo sapiens, UniProt P25098)
T3 sequence (P25098 whole entry): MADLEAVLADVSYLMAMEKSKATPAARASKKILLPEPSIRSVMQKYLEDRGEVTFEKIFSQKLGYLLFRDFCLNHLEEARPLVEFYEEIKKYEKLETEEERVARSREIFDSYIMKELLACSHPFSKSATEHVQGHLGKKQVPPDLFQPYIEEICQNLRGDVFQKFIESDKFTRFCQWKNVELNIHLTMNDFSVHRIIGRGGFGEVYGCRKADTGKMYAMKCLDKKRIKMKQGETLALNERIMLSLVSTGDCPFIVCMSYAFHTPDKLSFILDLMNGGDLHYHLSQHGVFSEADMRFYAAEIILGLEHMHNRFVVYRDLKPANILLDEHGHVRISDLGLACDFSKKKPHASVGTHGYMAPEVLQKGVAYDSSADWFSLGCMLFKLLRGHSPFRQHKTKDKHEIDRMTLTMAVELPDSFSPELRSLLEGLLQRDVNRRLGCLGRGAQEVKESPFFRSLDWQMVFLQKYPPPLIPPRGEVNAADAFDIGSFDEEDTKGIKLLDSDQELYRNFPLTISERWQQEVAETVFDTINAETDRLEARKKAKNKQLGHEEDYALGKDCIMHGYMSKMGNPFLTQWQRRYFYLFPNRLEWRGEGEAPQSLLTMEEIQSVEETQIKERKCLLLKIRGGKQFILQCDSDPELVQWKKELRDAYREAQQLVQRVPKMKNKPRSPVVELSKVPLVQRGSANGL

[8] = target: Atypical kinase COQ8A, mitochondrial (Homo sapiens, UniProt Q8NI60)
Sequence of Atypical kinase COQ8A, mitochondrial (Q8NI60 whole entry): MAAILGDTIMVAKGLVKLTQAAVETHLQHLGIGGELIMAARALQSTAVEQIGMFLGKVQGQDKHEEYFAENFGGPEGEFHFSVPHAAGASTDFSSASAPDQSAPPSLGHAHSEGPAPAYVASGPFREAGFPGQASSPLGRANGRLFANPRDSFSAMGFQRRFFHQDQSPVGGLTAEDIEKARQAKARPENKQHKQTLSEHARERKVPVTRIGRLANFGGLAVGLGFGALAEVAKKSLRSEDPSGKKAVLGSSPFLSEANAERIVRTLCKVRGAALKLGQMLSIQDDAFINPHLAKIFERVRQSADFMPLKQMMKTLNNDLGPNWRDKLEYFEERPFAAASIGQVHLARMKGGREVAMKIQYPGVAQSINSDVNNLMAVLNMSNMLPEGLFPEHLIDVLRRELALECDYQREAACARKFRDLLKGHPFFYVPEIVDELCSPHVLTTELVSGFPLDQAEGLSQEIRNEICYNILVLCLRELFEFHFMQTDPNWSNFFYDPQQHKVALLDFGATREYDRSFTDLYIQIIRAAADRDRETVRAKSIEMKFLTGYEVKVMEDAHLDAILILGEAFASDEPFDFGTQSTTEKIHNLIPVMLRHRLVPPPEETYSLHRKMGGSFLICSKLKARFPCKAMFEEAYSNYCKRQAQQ

[9] = target: Insulin receptor (Homo sapiens, UniProt P06213)
[10] = target: STE20-like serine/threonine-protein kinase (Homo sapiens, UniProt Q9H2G2)
[11] = target: Tyrosine-protein kinase BTK (Homo sapiens, UniProt Q06187)
[12] = target: Mitotic checkpoint serine/threonine-protein kinase BUB1 (Homo sapiens, UniProt O43683)
Sequence of Mitotic checkpoint serine/threonine-protein kinase BUB1 (O43683 whole entry): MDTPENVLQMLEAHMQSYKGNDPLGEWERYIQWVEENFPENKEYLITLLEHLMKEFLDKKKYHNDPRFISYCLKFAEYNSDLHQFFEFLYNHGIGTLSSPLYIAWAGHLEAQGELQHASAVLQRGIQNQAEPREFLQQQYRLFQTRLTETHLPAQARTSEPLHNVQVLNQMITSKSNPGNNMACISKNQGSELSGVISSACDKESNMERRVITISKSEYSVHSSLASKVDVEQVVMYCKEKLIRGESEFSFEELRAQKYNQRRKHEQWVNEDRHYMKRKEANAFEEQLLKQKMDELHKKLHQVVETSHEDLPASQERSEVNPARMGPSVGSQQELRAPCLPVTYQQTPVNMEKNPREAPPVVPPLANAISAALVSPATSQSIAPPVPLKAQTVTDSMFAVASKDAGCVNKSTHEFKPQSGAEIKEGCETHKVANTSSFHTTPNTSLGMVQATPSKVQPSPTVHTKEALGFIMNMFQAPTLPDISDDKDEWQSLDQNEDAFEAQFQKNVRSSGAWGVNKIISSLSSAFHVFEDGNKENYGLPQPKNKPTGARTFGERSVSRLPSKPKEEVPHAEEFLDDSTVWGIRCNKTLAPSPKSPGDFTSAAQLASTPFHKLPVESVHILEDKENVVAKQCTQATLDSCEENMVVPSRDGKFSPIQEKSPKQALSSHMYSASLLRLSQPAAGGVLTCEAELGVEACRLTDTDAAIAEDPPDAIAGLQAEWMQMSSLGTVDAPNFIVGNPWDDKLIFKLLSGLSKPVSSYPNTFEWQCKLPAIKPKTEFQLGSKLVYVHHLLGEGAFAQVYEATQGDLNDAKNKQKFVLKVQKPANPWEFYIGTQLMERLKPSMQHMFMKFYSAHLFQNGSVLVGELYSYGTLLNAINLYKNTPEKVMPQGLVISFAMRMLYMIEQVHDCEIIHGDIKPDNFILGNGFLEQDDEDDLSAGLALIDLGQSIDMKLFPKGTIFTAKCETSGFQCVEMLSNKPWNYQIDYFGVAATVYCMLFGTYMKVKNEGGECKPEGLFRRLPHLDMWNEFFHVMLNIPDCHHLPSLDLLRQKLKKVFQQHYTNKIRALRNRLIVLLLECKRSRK

[13] = target: Cyclin-dependent kinase 13 (Homo sapiens, UniProt Q14004)
Also: in the data inactive means no Kd found up to 30 µM.

| Kd [1] | Kd [2] | Kd [3] | Kd [4] | Kd [5] | Kd [6] | Kd [7] | Kd [8] | Kd [9] | Kd [10] | Kd [11] | Kd [12] | Kd [13] | SMILES |
| --- | --- | --- | --- | --- | --- | --- | --- | --- | --- | --- | --- | --- | --- |
| > 30 µM (inactive) | > 30 µM (inactive) | > 30 µM (inactive) | > 30 µM (inactive) | > 30 µM (inactive) | > 30 µM (inactive) | > 30 µM (inactive) | > 30 µM (inactive) | > 30 µM (inactive) | > 30 µM (inactive) | > 30 µM (inactive) | > 30 µM (inactive) | > 30 µM (inactive) | NC(=O)c1ccc(N(C(N)=O)c2c(F)cccc2F)nc1-c1ccc(F)cc1F [VX-702] |
| > 30 µM (inactive) | > 30 µM (inactive) | > 30 µM (inactive) | – | > 30 µM (inactive) | > 30 µM (inactive) | > 30 µM (inactive) | > 30 µM (inactive) | > 30 µM (inactive) | > 30 µM (inactive) | > 30 µM (inactive) | > 30 µM (inactive) | > 30 µM (inactive) | CNC(=O)c1cc(COc2nnc(Nc3ccc(Cl)cc3)c3ccoc23)ccn1 [TELATINIB] |
| > 30 µM (inactive) | > 30 µM (inactive) | > 30 µM (inactive) | > 30 µM (inactive) | 3.64 µM (active) | > 30 µM (inactive) | > 30 µM (inactive) | > 30 µM (inactive) | > 30 µM (inactive) | – | > 30 µM (inactive) | > 30 µM (inactive) | > 30 µM (inactive) | COc1cccc(Nc2ncnn3ccc(CN4CC[C@@H](N)[C@H](O)C4)c23)c1 [BMS-690514] |
| > 30 µM (inactive) | – | > 30 µM (inactive) | > 30 µM (inactive) | > 30 µM (inactive) | > 30 µM (inactive) | > 30 µM (inactive) | > 30 µM (inactive) | > 30 µM (inactive) | > 30 µM (inactive) | > 30 µM (inactive) | > 30 µM (inactive) | > 30 µM (inactive) | Cc1cc(-c2cc(OC(=O)c3ccccc3)ccc2Cl)cc2nnc(Nc3ccc(OCCN4CCCC4)cc3)nc12 [TG100-801] |
| > 30 µM (inactive) | > 30 µM (inactive) | – | > 30 µM (inactive) | > 30 µM (inactive) | > 30 µM (inactive) | > 30 µM (inactive) | > 30 µM (inactive) | > 30 µM (inactive) | > 30 µM (inactive) | > 30 µM (inactive) | > 30 µM (inactive) | > 30 µM (inactive) | O=c1[nH]c([C@@H]2CCCN2)nc2c1oc1ccc(Cl)cc12 |
| > 30 µM (inactive) | > 30 µM (inactive) | > 30 µM (inactive) | > 30 µM (inactive) | > 30 µM (inactive) | > 30 µM (inactive) | > 30 µM (inactive) | > 30 µM (inactive) | > 30 µM (inactive) | > 30 µM (inactive) | 0.547 µM (active) | – | > 30 µM (inactive) | C=CC(=O)Nc1cccc(Nc2nc(Nc3ccc(N4CCN(C(C)=O)CC4)cc3OC)ncc2C(F)(F)F)c1 [ROCILETINIB] |
| > 30 µM (inactive) | > 30 µM (inactive) | > 30 µM (inactive) | – | > 30 µM (inactive) | > 30 µM (inactive) | > 30 µM (inactive) | > 30 µM (inactive) | > 30 µM (inactive) | > 30 µM (inactive) | > 30 µM (inactive) | > 30 µM (inactive) | > 30 µM (inactive) | O=C(NOC[C@H](O)CO)c1ccc(F)c(F)c1Nc1ccc(I)cc1F [MIRDAMETINIB] |
| 1.06 µM (active) | > 30 µM (inactive) | > 30 µM (inactive) | > 30 µM (inactive) | > 30 µM (inactive) | > 30 µM (inactive) | > 30 µM (inactive) | > 30 µM (inactive) | > 30 µM (inactive) | 0.22 µM (active) | > 30 µM (inactive) | – | > 30 µM (inactive) | O=C(O)c1ccc2c(c1)nc(Nc1cccc(Cl)c1)c1ccncc12 [SILMITASERTIB] |

| SMILES | Kd [1] | Kd [2] | Kd [3] | Kd [4] | Kd [5] | Kd [6] | Kd [7] | Kd [8] | Kd [9] | Kd [10] | Kd [11] | Kd [12] | Kd [13] |
| --- | --- | --- | --- | --- | --- | --- | --- | --- | --- | --- | --- | --- | --- |
| Cc1c(NC(=O)OC[C@@H]2COCCN2)cn2ncnc(Nc3ccc4c(cnn4Cc4cccc(F)c4)c3)c12 [AC-480] | > 30 µM (inactive) | > 30 µM (inactive) | > 30 µM (inactive) | > 30 µM (inactive) | > 30 µM (inactive) | > 30 µM (inactive) | > 30 µM (inactive) | > 30 µM (inactive) | > 30 µM (inactive) | > 30 µM (inactive) | > 30 µM (inactive) | > 30 µM (inactive) | > 30 µM (inactive) |
| NC[C@@](O)(c1ccc(Cl)cc1)c1ccc(-c2cn[nH]c2)cc1 [AT-13148] | > 30 µM (inactive) | > 30 µM (inactive) | – | > 30 µM (inactive) | > 30 µM (inactive) | > 30 µM (inactive) | 0.17 µM (active) | > 30 µM (inactive) | > 30 µM (inactive) | > 30 µM (inactive) | > 30 µM (inactive) | – | > 30 µM (inactive) |
| N#CCNC(=O)c1ccc(-c2ccnc(Nc3ccc(N4CCOCC4)cc3)n2)cc1 [MOMELOTINIB] | > 30 µM (inactive) | > 30 µM (inactive) | > 30 µM (inactive) | > 30 µM (inactive) | > 30 µM (inactive) | > 30 µM (inactive) | > 30 µM (inactive) | > 30 µM (inactive) | > 30 µM (inactive) | – | > 30 µM (inactive) | > 30 µM (inactive) | > 30 µM (inactive) |
| C=CCN(/C=C1/C(=O)O[C@H](COC)[C@@]2(C)C1=C(O)C(=O)C1=C2[C@H](OC(C)=O)C[C@]2(C)C(=O)CC[C@@H]12)CC=C [SONOLISIB] | > 30 µM (inactive) | > 30 µM (inactive) | > 30 µM (inactive) | > 30 µM (inactive) | > 30 µM (inactive) | > 30 µM (inactive) | > 30 µM (inactive) | > 30 µM (inactive) | > 30 µM (inactive) | > 30 µM (inactive) | > 30 µM (inactive) | – | > 30 µM (inactive) |
